From US8354502B2, “Bioactive peptides identified in enzymatic hydrolyzates of milk caseins and method of obtaining same” (Consejo Superior de Investigaciones Cientificas, priority 2005, dated 2013)
Where two headings read alike, the source gives them in different places. Where a SMILES comes first, the peptide text is derived from it. Where no end group is shown, it is not given here.

Legend:
[1] = target: T1, angiotensin-converting enzyme (ACE) (Oryctolagus cuniculus, UniProt P12822); assay: Angiotensin-converting enzyme inhibitory activity (ACEIa) in vitro; format: biochemical
T1 sequence (P12822 34-1310): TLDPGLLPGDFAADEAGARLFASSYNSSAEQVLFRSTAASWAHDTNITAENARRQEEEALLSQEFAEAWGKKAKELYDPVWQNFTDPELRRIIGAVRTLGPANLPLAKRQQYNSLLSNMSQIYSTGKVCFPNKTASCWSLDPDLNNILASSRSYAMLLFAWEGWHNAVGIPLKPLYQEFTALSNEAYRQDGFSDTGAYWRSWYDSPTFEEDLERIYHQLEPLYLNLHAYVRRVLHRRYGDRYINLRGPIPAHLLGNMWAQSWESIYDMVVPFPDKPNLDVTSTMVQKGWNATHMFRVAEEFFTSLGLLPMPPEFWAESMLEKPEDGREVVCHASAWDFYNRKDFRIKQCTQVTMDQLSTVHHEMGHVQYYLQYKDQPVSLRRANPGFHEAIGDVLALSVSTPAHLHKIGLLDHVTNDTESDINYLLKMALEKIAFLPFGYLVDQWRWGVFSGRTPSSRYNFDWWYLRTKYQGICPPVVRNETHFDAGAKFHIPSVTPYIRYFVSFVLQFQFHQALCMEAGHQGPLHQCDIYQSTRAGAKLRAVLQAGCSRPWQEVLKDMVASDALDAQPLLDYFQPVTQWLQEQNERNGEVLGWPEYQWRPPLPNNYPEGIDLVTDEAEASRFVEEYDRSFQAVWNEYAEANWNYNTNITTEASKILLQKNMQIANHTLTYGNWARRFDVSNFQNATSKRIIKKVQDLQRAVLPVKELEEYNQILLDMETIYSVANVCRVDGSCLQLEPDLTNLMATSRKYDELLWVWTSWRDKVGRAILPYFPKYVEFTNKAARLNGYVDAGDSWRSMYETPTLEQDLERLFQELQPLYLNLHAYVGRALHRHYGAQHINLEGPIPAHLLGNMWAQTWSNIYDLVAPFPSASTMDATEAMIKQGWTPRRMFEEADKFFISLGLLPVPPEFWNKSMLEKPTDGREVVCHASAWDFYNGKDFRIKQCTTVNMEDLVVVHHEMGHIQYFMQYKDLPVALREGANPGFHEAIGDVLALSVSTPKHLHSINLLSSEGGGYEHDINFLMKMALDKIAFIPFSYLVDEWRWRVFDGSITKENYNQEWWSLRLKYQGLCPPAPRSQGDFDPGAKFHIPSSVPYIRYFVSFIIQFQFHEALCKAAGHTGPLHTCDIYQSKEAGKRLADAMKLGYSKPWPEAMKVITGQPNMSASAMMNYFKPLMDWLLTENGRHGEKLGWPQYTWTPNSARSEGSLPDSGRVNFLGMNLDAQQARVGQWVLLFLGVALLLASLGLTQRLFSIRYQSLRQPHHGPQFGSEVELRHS
Method: The ACE-inhibitory activity is measured in vitro by the method of D. W. Cushman and H. S. Cheung (Spectrophotometric assay and properties of angiotensin-converting enzyme in rabbit lung. Biochemical Pharmacology, 1971, 20:1637-1648) later modified by […]. Yoon, D. Y. Yu, […]. Chung (Novel angiotensin-1-converting enzyme inhibitory peptides derived from recombinant human αs1-casein expressed in Escherichia coli. Journal of Dairy Research 1999, 66,431-439). The substrate, […], Sigma, Chemical Co, St. Louis, Mo., USA), is dissolved in 0.1 M borate buffer with 0.3 M NaCl, pH 8.3, to obtain a final concentration of 5 mM. 40 μL of each one of the samples whose ACE-inhibitory activity is to be assayed are added to 100 μL of substrate. The ACE enzyme ([…], Sigma) is added, dissolved in 50% glycerol and diluted at the point in time of performing the test in 1/10 bidistilled water. The reaction is carried out at 37° C. for 30 minutes in water bath. The enzyme is inactivated by reducing the pH with 150 μl HCL 1N. The hipuric acid formed is extracted with 1000 μL ethyl acetate. Following agitation in vortex for 20 seconds, it is centrifuged at 3000×g for 10 minutes at ambient temperature. 750 μL are taken from the organic phase that is heat-evaporated at 95° C. for 10 minutes. The hipuric acid residue is re-dissolved in 800 μL bidistilled water and, after agitating for 20 seconds, the absorbance at 228 nm is measured in a Dur-70 spectrophotometer from Beckman Instruments, Inc., Fullerton, USA. The following equation is used for calculating the percentage of ACE-inhibitory activity: [formula] The blank is used to correct the background absorbance. This blank contains substrate, enzyme and 20 μL bidistilled water instead of sample, and the reaction is halted at time zero. The control entailed one hundred percent of the enzymatic action on the substrate in absence of inhibitors and contains […] of water instead of sample and is incubated for the same length of time as the sample. The results are shown as IC50 (μM) or concentration at which the activity of the enzyme is inhibited by 50%. The protein concentration is determined by means of the bicinchoninic acid test (Pierce-Rockord, Ill., USA), using bovine seroalbumin as a pattern.

[2] = tested on: spontaneously hypertensive rats (SHR); assay: Antihypertensive activity in spontaneously hypertensive rats (SHR), tail cuff SBP and DBP; format: in vivo, rat; details: 2 mg/kg, intragastric catheter
Method: The effect of several of the peptides identified on the blood pressure of spontaneously hypertensive rats (SHR) is studied. The peptides are chemically synthesized for this study.
The study is conducted with male SHR rats 17-20 weeks of age weighing 300 to 350 g, from Charles River Laboratories España S. A. The rats are kept in cages, five per cage, maintaining a stable temperature of 25° C., with 12-hour light-darkness cycles, taking water and food ad libitum. […] The SBP and DBP values are determined by taking 3 consecutive measurements and calculating the average of the three values for each one of these two variables. […]
The products to be tested are administered by means of an intragastric catheter within a time span ranging from 9 a.m. to 10 a.m., and the dosage tested is administered dissolved in 1 ml of distilled water. SBP and DBP readings are taken prior to the administration, and periodic measurements of these variables are also made every 2 hours following the administration, up to 8 hours post-administration. […]
The results are grouped and the ±average of the standard error of the measurement (SEM) for a minimum of 6 homogeneous tests is calculated. […]

[3] = tested on: Enterococcus faecalis CECT 795; assay: Antimicrobial activity (colony count after 2 h incubation); format: cell-based; details: synthetic peptide 0.05 mM
Method: (§1) The antimicrobial activity is determined in accordance with the method of A. Pellegrini, C. Deltting, U. Thomas, P. Hunziker (Isolation and characterization of four bactericidal domains in the bovine β-lactoglobulin Biochimica et Biophysica Acta, 2001, 1526:131-140) using as microorganisms Escherichia coli [American Type Culture Collection (ATCC), Rockville, Md., USA] ATCC 25922, Listeria innocua [Colección Española de Cultivos Tipo (CECT) Valencia, Spain] CECT 910T, Staphylococcus epidermidis CECT 231, Enterococcus faecalis CECT 795, Serratia marcescens CECT 854 and Staphylococcus carnosus CECT 4491T.
(§2) The bacterial suspensions are inoculated at 1% in the Tryptose Soy Broth (TSB) for Escherichia coli, Serratia marcescens and the strains of the Staphylococcus genus, or in the brain-heart infusion (BHI) broth for Enterococcus faecalis and Listeria innocua. The incubation is carried out at 37° C., except in the case of Serratia marcescens, which is at 30° C.
(§3) The bacterial innoculum, from which the work is begun, is obtained after incubating a colony grown in TSB-Agar or BHI-Agar in 10 mL of TSB or BHI overnight at 37a or 30° C. The bacterial suspension (1 mL) is diluted 1/50 with the corresponding culture medium, being incubated at the appropriate temperature for each strain up to achieving a population density of 1-4×10^8 colony-forming units (CFU) per mL. The culture is centrifuged at 2000×g for 10 minutes, the sedimented bacteria are washed twice with 15 mL phosphate buffer (pH 7.4) and the population is adjusted to 10^6 CFU/mL. On a sterile multi-well plate (Greiner Labortechnik, Frickenhausen, Germany), 50 μL of the bacterial suspension, 50 μL of the substance to be tested and 100 μL of the phosphate buffer are mixed with 2% of the appropriate culture medium in each case, and the mixture is incubated at 37° C. or 30° C. for 2 hours. After this time, the mixture is diluted to 10^−5, 100 μL of each one of the dilutions are added to TSB-Agar or BHI-Agar plates and the plates are incubated for 24 hours, after which time the colony count is taken.
(§4) The following equation is used for calculating the antimicrobial activity:
(§5) [formula] [formula] [formula] Measurement of the Angiotensin-Converting Enzyme Inhibitory Activity (ACEIa)

[4] = tested on: Escherichia coli ATCC 25922; assay: as above; format: cell-based; details: synthetic peptide 0.05 mM
Method: as §1, §2, §3, §4, §5

[5] = tested on: Listeria innocua CECT 910T; assay: as above; format: cell-based; details: synthetic peptide 0.05 mM
Method: as §1, §2, §3, §4, §5

[6] = tested on: Serratia marcescens CECT 854; assay: as above; format: cell-based; details: synthetic peptide 0.05 mM
Method: as §1, §2, §3, §4, §5

[7] = tested on: Staphylococcus carnosus CECT 4491T; assay: as above; format: cell-based; details: synthetic peptide 0.05 mM
Method: as §1, §2, §3, §4, §5

[8] = tested on: Staphylococcus epidermidis CECT 231; assay: as above; format: cell-based; details: synthetic peptide 0.05 mM
Method: as §1, §2, §3, §4, §5

[9] = target: T1, angiotensin-converting enzyme (ACE); details: peptides from Manchego cheese, Gómez-Ruiz et al. 2004; read-out: ACE-inhibitory activity IC50; cited from earlier work
[10] = read-out: ACE-inhibitory activity CI50, synthetic peptides of FC1 and FD1 subfractions

CC(C)[C@H](NC(=O)[C@H](Cc1ccc(O)cc1)NC(=O)[C@@H]1CCCN1)C(=O)O [SEQ. ID. No. 15, PYV] (H-Pro-Tyr-Val-OH; N-terminus and C-terminus assumed)
IC50 ([1]; synthetic peptides resulting from simulated gastrointestinal digestion, read-out: ACE-inhibitory activity IC50): 741 µM | times less ACE-inhibitory activity than the starting peptide ([1]; versus PYVRYL): 370 times | lowering of the SBP and DBP [2]: significant lowering of the SBP and DBP | time of peak effect on the SBP after administration [2]: 2 h

AYFYPEL [SEQ. ID. No. 13, AYFYPEL]
IC50 ([1]; read-out: ACE-inhibitory activity CI50, synthetic peptides of bovine casein permeate fractions): 7.5 µM

HLPLPLL [SEQ. ID. No. 14, HLPLPLL]
IC50 ([1]; synthetic peptides of bovine casein permeate fractions, read-out: ACE-inhibitory activity CI50): 34.2 µM

LKKISQ [SEQ. ID. No. 1, LKKISQ]
Antimicrobial activity E. faecalis [3]: 0 | Antimicrobial activity E. coli [4]: 0.33 | Antimicrobial activity L. innocua [5]: 1.11 | Antimicrobial activity S. marcescens [6]: 0 | Antimicrobial activity S. carnosus [7]: >6 | antimicrobial activity against S. carnosus (in words) [7]: bactericidal activity | Antimicrobial activity S. epidermidis [8]: 3.6 | ACE-inhibitory activity (in words) [1]: potent ACE-inhibitory activity | IC50 [1, 10]: 2.1 µM

LKKISQYYQKFAWPQYL (Derived from casein) [SEQ. ID. No. 3, ovine αs2-casein fragment 165-181]
Antimicrobial activity E. faecalis [3]: 3.32 | Antimicrobial activity E. coli [4]: 4.63 | antimicrobial activity against E. coli (in words) [4]: high degree of antimicrobial activity | Antimicrobial activity L. innocua [5]: >6 | Antimicrobial activity S. marcescens [6]: 0.38 | Antimicrobial activity S. carnosus [7]: >6 | antimicrobial activity against S. carnosus (in words) [7]: bactericidal activity | Antimicrobial activity S. epidermidis [8]: >6

PYVRYL [SEQ. ID. No. 7, PYVRYL]
IC50 [1, 10]: 1.94 µM

VDQHQKAMKPWTQPKTNAIPYVRYL (Derived from casein) [SEQ. ID. No. 2, ovine αs2-casein fragment 184-208]
Antimicrobial activity E. faecalis [3]: 0 | Antimicrobial activity E. coli [4]: 0.07 | Antimicrobial activity L. innocua [5]: 1.71 | Antimicrobial activity S. marcescens [6]: 0 | Antimicrobial activity S. carnosus [7]: >6 | antimicrobial activity against S. carnosus (in words) [7]: bactericidal activity | Antimicrobial activity S. epidermidis [8]: 0.61

VRYL [SEQ. ID. No. 11, previously identified 205-208 fragment of ovine αs2-casein from Manchego cheese]
IC50 [9]: 24.1 µM
